For data set [1] the following is noted: cited from earlier work.
Data set [2] can be described thus: In vitro release of steroids entrapped in hydrogel compared to free drug in PBS. The format is physicochemical. The conditions noted are these: 9% 4a20KSG hydrogel, FIG. 20. How it is done:
A 9% 4a20KSG hydrogel was prepared incorporating three different steroids (flunisolide, budesonide, and triamcinolone acetonide).

Values after ≈ are worked out from the molar mass of the structure shown. Where two headings read alike, the source gives them in different places. A value given as a limit tells only on which side of the number the result lay.

Regarding `Cc1cccc(Nc2ccccc2C(=O)[O-])c1C.[Na+]` [Mefanamic Acid], the Solubility in data set [1] (pH 7.1) is recorded as 40 μg/ml @ pH 7.1.
Take `O=C(O)c1cc(-c2ccc(F)cc2F)ccc1O` [Diflunisal]: the Solubility in data set [1] (pH 7) was 3.43 mg/ml @ pH 7.
With `CC(C(=O)O)c1ccc(-c2ccccc2)c(F)c1` (stereo not shown) [Flurbiprofen], the Solubility in data set [1] was 0.9 mg/mL (≈ 3680 µM).
Turning to `O=C(c1ccccc1)c1ccc2n1CCC2C(=O)O` (stereo not shown) [Ketorolac], in data set [1] (in IPB), the Solubility is 10.5 mg/mL (≈ 41100 µM).
As to `CC1(C)O[C@@H]2C[C@H]3[C@@H]4C[C@H](F)C5=CC(=O)C=C[C@]5(C)[C@H]4[C@@H](O)C[C@]3(C)[C@]2(C(=O)CO)O1` [flunisolide], the “Release profile in hydrogel compared to free drug in PBS” value in data set [2] is listed as “slower more sustained drug release profile”.
Regarding `Cc1ccc(Cl)c(Nc2ccccc2C(=O)[O-])c1Cl.[Na+]` [Meclofenamate sodium], the Solubility in data set [1] (pH 7.2) and in data set [1] (pH 9.0) was <50 μg/mL @ pH 7.2 50 mg/mL @ pH 9.0 throughout.
Regarding `CC(C(=O)[O][Ca][O]C(=O)C(C)c1cccc(Oc2ccccc2)c1)c1cccc(Oc2ccccc2)c1` (stereo not shown) [Fenoprofen Calcium], the Solubility entry in data set [1] (in water) is listed as “Slightly soluble in water”.
Consider `Cc1ccc(-c2cc(C(F)(F)F)nn2-c2ccc(S(N)(=O)=O)cc2)cc1` [Celecoxib], for which, in data set [1], the Solubility is 0.005 mg/mL (≈ 13.1 µM).
In the case of `CC(C)Cc1ccc(C(C)C(=O)O)cc1` (stereo not shown) [Ibuprofen], the Solubility in data set [1] (pH 7) was 10 mg/ml @ pH 7.
Consider `CC(C)OC(=O)CCC/C=C\C[C@@H]1[C@@H](CC[C@@H](O)CCc2ccccc2)[C@H](O)C[C@@H]1O` [Latanoprost], for which the “Solubility in aqueous solutions” value in data set [1] is “relatively low solubility”.
With `COc1c(N2C[C@@H]3CCCN[C@@H]3C2)c(F)cc2c(=O)c(C(=O)O)cn(C3CC3)c12` [Moxifloxacin], the “Solubility in aqueous solutions” value in data set [1] is reported as “readily soluble”.
Regarding `COc1ccc2c(c1)c(CC(=O)O)c(C)n2C(=O)c1ccc(Cl)cc1` [Indomethacin], the Solubility in data set [1] (pH 7, Form I) is 0.54 mg/mL (≈ 1510 µM); in data set [1] (pH 7, Form II) it was 0.80 mg/mL (≈ 2240 µM).
Take `NC(=O)Cc1cccc(C(=O)c2ccccc2)c1N` [Nepafenac]: the Solubility in data set [1] is <1 mg/ml (The drug is available as 0.1% suspension).
As for `CCc1cccc2c3c([nH]c12)C(CC)(CC(=O)O)OCC3` (stereo not shown) [Etodolac], the Solubility result in data set [1] (in water) was “Insoluble in water”.
